This passage reports IC50 results from paper PMC2191316 (The Journal of Experimental Medicine, 1994).

Residues, ends and D or L forms follow the SMILES beside them.

This experiment addresses DRB5*0101 molecules (Homo sapiens, UniProt P01903+Q30154). Nature of the experiment: Inhibition of radiolabeled TT. The class given is binding.
In turn, `CC[C@H](C)[C@H](NC(=O)[C@H](CC(N)=O)NC(=O)[C@H](CCCCN)NC(=O)[C@H](Cc1ccccc1)NC(=O)[C@H](Cc1ccccc1)NC(=O)[C@H](Cc1c[nH]cn1)NC(=O)[C@@H](NC(=O)[C@@H](NC(=O)[C@@H]1CCCN1C(=O)[C@H](CC(N)=O)NC(=O)[C@H](CCC(=O)O)NC(=O)[C@@H](N)CC(=O)O)C(C)C)C(C)C)C(=O)N[C@H](C(=O)N[C@H](C(=O)N1CCC[C@H]1C(=O)N[C@@H](CCCNC(=N)N)C(=O)N[C@H](C(=O)N1CCC[C@H]1C(=O)N1CCC[C@H]1C(=O)O)[C@@H](C)O)[C@@H](C)O)C(C)C` [(84-102)] yielded an IC50 of 0.055 µM. Take `CC[C@H](C)[C@H](NC(=O)[C@H](CC(N)=O)NC(=O)[C@H](CCCCN)NC(=O)[C@H](Cc1ccccc1)NC(=O)[C@H](Cc1ccccc1)NC(=O)[C@H](Cc1c[nH]cn1)NC(=O)[C@@H](NC(=O)[C@@H](NC(=O)[C@@H]1CCCN1C(=O)[C@H](CC(N)=O)NC(=O)[C@H](C)N)C(C)C)C(C)C)C(=O)N[C@H](C(=O)N[C@H](C(=O)N1CCC[C@H]1C(=O)N[C@@H](CCCNC(=N)N)C(=O)O)[C@@H](C)O)C(C)C` [(85-99)85A] (H-ANPVVHFFKNIVTPR-OH): 0.42 µM corresponded to half-maximal inhibition (IC50). `CC[C@H](C)[C@H](NC(=O)[C@H](CC(N)=O)NC(=O)[C@H](CCCCN)NC(=O)[C@H](Cc1ccccc1)NC(=O)[C@H](Cc1ccccc1)NC(=O)[C@H](Cc1c[nH]cn1)NC(=O)[C@@H](NC(=O)[C@@H](NC(=O)[C@@H]1CCCN1C(=O)[C@H](C)NC(=O)[C@@H](N)CCC(=O)O)C(C)C)C(C)C)C(=O)N[C@H](C(=O)N[C@H](C(=O)N1CCC[C@H]1C(=O)N[C@@H](CCCNC(=N)N)C(=O)O)[C@@H](C)O)C(C)C` [(85-99)86A] (H-EAPVVHFFKNIVTPR-OH): the IC50 is 0.94 µM.

For the compound `CC[C@H](C)[C@H](NC(=O)[C@H](CC(N)=O)NC(=O)[C@H](CCCCN)NC(=O)[C@H](Cc1ccccc1)NC(=O)[C@H](Cc1ccccc1)NC(=O)[C@H](Cc1c[nH]cn1)NC(=O)[C@@H](NC(=O)[C@@H](NC(=O)[C@H](C)NC(=O)[C@H](CC(N)=O)NC(=O)[C@@H](N)CCC(=O)O)C(C)C)C(C)C)C(=O)N[C@H](C(=O)N[C@H](C(=O)N1CCC[C@H]1C(=O)N[C@@H](CCCNC(=N)N)C(=O)O)[C@@H](C)O)C(C)C` [(85-99)87A] (H-ENAVVHFFKNIVTPR-OH), it took 0.61 µM to reach half-maximal inhibition (IC50). For `CC[C@H](C)[C@H](NC(=O)[C@H](CC(N)=O)NC(=O)[C@H](CCCCN)NC(=O)[C@H](Cc1ccccc1)NC(=O)[C@H](Cc1ccccc1)NC(=O)[C@H](Cc1c[nH]cn1)NC(=O)[C@@H](NC(=O)[C@H](C)NC(=O)[C@@H]1CCCN1C(=O)[C@H](CC(N)=O)NC(=O)[C@@H](N)CCC(=O)O)C(C)C)C(=O)N[C@H](C(=O)N[C@H](C(=O)N1CCC[C@H]1C(=O)N[C@@H](CCCNC(=N)N)C(=O)O)[C@@H](C)O)C(C)C` [(85-99)88A] (H-ENPAVHFFKNIVTPR-OH), the IC50 is 0.945 µM. Compound `CC[C@H](C)[C@H](NC(=O)[C@H](CC(N)=O)NC(=O)[C@H](CCCCN)NC(=O)[C@H](Cc1ccccc1)NC(=O)[C@H](Cc1ccccc1)NC(=O)[C@H](Cc1c[nH]cn1)NC(=O)[C@H](C)NC(=O)[C@@H](NC(=O)[C@@H]1CCCN1C(=O)[C@H](CC(N)=O)NC(=O)[C@@H](N)CCC(=O)O)C(C)C)C(=O)N[C@H](C(=O)N[C@H](C(=O)N1CCC[C@H]1C(=O)N[C@@H](CCCNC(=N)N)C(=O)O)[C@@H](C)O)C(C)C` [(85-99)89A] (H-ENPVAHFFKNIVTPR-OH) gave an IC50 of 0.69 µM. `CC[C@H](C)[C@H](NC(=O)[C@H](CC(N)=O)NC(=O)[C@H](CCCCN)NC(=O)[C@H](Cc1ccccc1)NC(=O)[C@H](Cc1ccccc1)NC(=O)[C@H](C)NC(=O)[C@@H](NC(=O)[C@@H](NC(=O)[C@@H]1CCCN1C(=O)[C@H](CC(N)=O)NC(=O)[C@@H](N)CCC(=O)O)C(C)C)C(C)C)C(=O)N[C@H](C(=O)N[C@H](C(=O)N1CCC[C@H]1C(=O)N[C@@H](CCCNC(=N)N)C(=O)O)[C@@H](C)O)C(C)C` [(85-99)90A] (H-ENPVVAFFKNIVTPR-OH) showed an IC50 of 0.64 µM. In turn, `CC[C@H](C)[C@H](NC(=O)[C@H](CC(N)=O)NC(=O)[C@H](CCCCN)NC(=O)[C@H](Cc1ccccc1)NC(=O)[C@H](C)NC(=O)[C@H](Cc1c[nH]cn1)NC(=O)[C@@H](NC(=O)[C@@H](NC(=O)[C@@H]1CCCN1C(=O)[C@H](CC(N)=O)NC(=O)[C@@H](N)CCC(=O)O)C(C)C)C(C)C)C(=O)N[C@H](C(=O)N[C@H](C(=O)N1CCC[C@H]1C(=O)N[C@@H](CCCNC(=N)N)C(=O)O)[C@@H](C)O)C(C)C` [(85-99)91A] (H-ENPVVHAFKNIVTPR-OH) gave an IC50 of 1.3 µM. For `CC[C@H](C)[C@H](NC(=O)[C@H](CC(N)=O)NC(=O)[C@H](CCCCN)NC(=O)[C@H](C)NC(=O)[C@H](Cc1ccccc1)NC(=O)[C@H](Cc1c[nH]cn1)NC(=O)[C@@H](NC(=O)[C@@H](NC(=O)[C@@H]1CCCN1C(=O)[C@H](CC(N)=O)NC(=O)[C@@H](N)CCC(=O)O)C(C)C)C(C)C)C(=O)N[C@H](C(=O)N[C@H](C(=O)N1CCC[C@H]1C(=O)N[C@@H](CCCNC(=N)N)C(=O)O)[C@@H](C)O)C(C)C` [(85-99)92A] (H-ENPVVHFAKNIVTPR-OH) the value was 8.2 µM; for `CC[C@H](C)[C@H](NC(=O)[C@H](CC(N)=O)NC(=O)[C@H](C)NC(=O)[C@H](Cc1ccccc1)NC(=O)[C@H](Cc1ccccc1)NC(=O)[C@H](Cc1c[nH]cn1)NC(=O)[C@@H](NC(=O)[C@@H](NC(=O)[C@@H]1CCCN1C(=O)[C@H](CC(N)=O)NC(=O)[C@@H](N)CCC(=O)O)C(C)C)C(C)C)C(=O)N[C@H](C(=O)N[C@H](C(=O)N1CCC[C@H]1C(=O)N[C@@H](CCCNC(=N)N)C(=O)O)[C@@H](C)O)C(C)C` [(85-99)93A] (H-ENPVVHFFANIVTPR-OH), 2.9 µM; for `CC[C@H](C)[C@H](NC(=O)[C@H](C)NC(=O)[C@H](CCCCN)NC(=O)[C@H](Cc1ccccc1)NC(=O)[C@H](Cc1ccccc1)NC(=O)[C@H](Cc1c[nH]cn1)NC(=O)[C@@H](NC(=O)[C@@H](NC(=O)[C@@H]1CCCN1C(=O)[C@H](CC(N)=O)NC(=O)[C@@H](N)CCC(=O)O)C(C)C)C(C)C)C(=O)N[C@H](C(=O)N[C@H](C(=O)N1CCC[C@H]1C(=O)N[C@@H](CCCNC(=N)N)C(=O)O)[C@@H](C)O)C(C)C` [(85-99)94A] (H-ENPVVHFFKAIVTPR-OH), 0.14 µM. `CC(C)[C@H](NC(=O)[C@H](C)NC(=O)[C@H](CC(N)=O)NC(=O)[C@H](CCCCN)NC(=O)[C@H](Cc1ccccc1)NC(=O)[C@H](Cc1ccccc1)NC(=O)[C@H](Cc1c[nH]cn1)NC(=O)[C@@H](NC(=O)[C@@H](NC(=O)[C@@H]1CCCN1C(=O)[C@H](CC(N)=O)NC(=O)[C@@H](N)CCC(=O)O)C(C)C)C(C)C)C(=O)N[C@H](C(=O)N1CCC[C@H]1C(=O)N[C@@H](CCCNC(=N)N)C(=O)O)[C@@H](C)O` [(85-99)95A] (H-ENPVVHFFKNAVTPR-OH) displayed an IC50 of 1.1 µM.

Turning to `CC[C@H](C)[C@H](NC(=O)[C@H](CC(N)=O)NC(=O)[C@H](CCCCN)NC(=O)[C@H](Cc1ccccc1)NC(=O)[C@H](Cc1ccccc1)NC(=O)[C@H](Cc1c[nH]cn1)NC(=O)[C@@H](NC(=O)[C@@H](NC(=O)[C@@H]1CCCN1C(=O)[C@H](CC(N)=O)NC(=O)[C@@H](N)CCC(=O)O)C(C)C)C(C)C)C(=O)N[C@@H](C)C(=O)N[C@H](C(=O)N1CCC[C@H]1C(=O)N[C@@H](CCCNC(=N)N)C(=O)O)[C@@H](C)O` [(85-99)96A] (H-ENPVVHFFKNIATPR-OH), it took 0.73 µM to reach half-maximal inhibition (IC50).

For `CC[C@H](C)[C@H](NC(=O)[C@H](CC(N)=O)NC(=O)[C@H](CCCCN)NC(=O)[C@H](Cc1ccccc1)NC(=O)[C@H](Cc1ccccc1)NC(=O)[C@H](Cc1c[nH]cn1)NC(=O)[C@@H](NC(=O)[C@@H](NC(=O)[C@@H]1CCCN1C(=O)[C@H](CC(N)=O)NC(=O)[C@@H](N)CCC(=O)O)C(C)C)C(C)C)C(=O)N[C@H](C(=O)N[C@H](C(=O)N[C@@H](C)C(=O)N[C@@H](CCCNC(=N)N)C(=O)O)[C@@H](C)O)C(C)C` [(85-99)98A] (H-ENPVVHFFKNIVTAR-OH), the IC50 was found to be 0.35 µM. To `CC[C@H](C)[C@H](NC(=O)[C@H](CC(N)=O)NC(=O)[C@H](CCCCN)NC(=O)[C@H](Cc1ccccc1)NC(=O)[C@H](Cc1ccccc1)NC(=O)[C@H](Cc1c[nH]cn1)NC(=O)[C@@H](NC(=O)[C@@H](NC(=O)[C@@H]1CCCN1C(=O)[C@H](CC(N)=O)NC(=O)[C@@H](N)CCC(=O)O)C(C)C)C(C)C)C(=O)N[C@H](C(=O)N[C@H](C(=O)N1CCC[C@H]1C(=O)N[C@@H](C)C(=O)O)[C@@H](C)O)C(C)C` [(85-99)99A] (H-ENPVVHFFKNIVTPA-OH) belongs 2.3 µM; to `CC[C@H](C)[C@H](NC(=O)[C@H](CC(N)=O)NC(=O)[C@H](CCCCN)NC(=O)[C@H](Cc1ccccc1)NC(=O)[C@H](Cc1ccccc1)NC(=O)[C@H](Cc1c[nH]cn1)NC(=O)[C@@H](N)C(C)C)C(=O)N[C@H](C(=O)N[C@H](C(=O)N1CCC[C@H]1C(=O)N[C@@H](CCCNC(=N)N)C(=O)O)[C@@H](C)O)C(C)C` [(89-99)] (H-VHFFKNIVTPR-OH), 1.2 µM.
